Assay results from ChEMBL document CHEMBL1681764, “Isolation, structure identification and SAR studies on thiosugar sulfonium salts, neosalaprinol and neoponkoranol, as potent α-glucosidase inhibitors” (Bioorg Med Chem, 2011).

Columns and labels:
[1] = biological target: T1, Sucrase-isomaltase, intestinal (Rattus norvegicus, UniProt P23739); assay: Inhibition of rat intestinal sucrase
[2] = biological target: T1, Sucrase-isomaltase, intestinal; assay: Inhibition of rat intestinal isomaltase
[3] = biological target: Sucrase-isomaltase, intestinal (Rattus norvegicus) (UniProt P23739); assay: Inhibition of rat intestinal sucrase at >384 uM
Chain of Sucrase-isomaltase, intestinal (Rattus norvegicus) (P23739 1-1013 limits assumed): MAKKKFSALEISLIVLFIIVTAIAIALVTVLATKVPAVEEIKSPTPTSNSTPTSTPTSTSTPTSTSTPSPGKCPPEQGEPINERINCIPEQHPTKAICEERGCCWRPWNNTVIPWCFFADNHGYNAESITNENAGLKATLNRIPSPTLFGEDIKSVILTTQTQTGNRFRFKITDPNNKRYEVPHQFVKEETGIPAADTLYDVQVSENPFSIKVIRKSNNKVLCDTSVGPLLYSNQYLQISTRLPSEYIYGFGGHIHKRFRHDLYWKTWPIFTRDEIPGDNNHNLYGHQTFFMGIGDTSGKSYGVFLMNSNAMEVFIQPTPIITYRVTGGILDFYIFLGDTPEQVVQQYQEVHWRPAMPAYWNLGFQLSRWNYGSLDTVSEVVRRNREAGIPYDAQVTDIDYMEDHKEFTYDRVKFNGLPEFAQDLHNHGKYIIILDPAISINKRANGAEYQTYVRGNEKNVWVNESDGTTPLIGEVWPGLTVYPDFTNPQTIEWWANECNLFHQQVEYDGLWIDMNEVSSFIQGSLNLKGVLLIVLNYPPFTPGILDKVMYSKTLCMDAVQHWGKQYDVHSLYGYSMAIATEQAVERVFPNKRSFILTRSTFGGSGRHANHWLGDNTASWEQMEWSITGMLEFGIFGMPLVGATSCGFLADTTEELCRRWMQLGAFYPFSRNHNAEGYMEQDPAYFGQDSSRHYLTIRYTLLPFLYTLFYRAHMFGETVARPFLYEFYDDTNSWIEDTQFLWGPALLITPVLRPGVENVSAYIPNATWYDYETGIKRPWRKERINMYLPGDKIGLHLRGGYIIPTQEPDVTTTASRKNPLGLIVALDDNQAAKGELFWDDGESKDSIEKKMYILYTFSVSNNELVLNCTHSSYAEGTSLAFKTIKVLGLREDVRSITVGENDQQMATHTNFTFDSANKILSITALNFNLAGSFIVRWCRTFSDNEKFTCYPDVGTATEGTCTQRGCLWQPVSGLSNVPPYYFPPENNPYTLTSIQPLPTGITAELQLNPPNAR
Chain of Sucrase-isomaltase, intestinal (Rattus norvegicus) (P23739 1014-1841 limits assumed): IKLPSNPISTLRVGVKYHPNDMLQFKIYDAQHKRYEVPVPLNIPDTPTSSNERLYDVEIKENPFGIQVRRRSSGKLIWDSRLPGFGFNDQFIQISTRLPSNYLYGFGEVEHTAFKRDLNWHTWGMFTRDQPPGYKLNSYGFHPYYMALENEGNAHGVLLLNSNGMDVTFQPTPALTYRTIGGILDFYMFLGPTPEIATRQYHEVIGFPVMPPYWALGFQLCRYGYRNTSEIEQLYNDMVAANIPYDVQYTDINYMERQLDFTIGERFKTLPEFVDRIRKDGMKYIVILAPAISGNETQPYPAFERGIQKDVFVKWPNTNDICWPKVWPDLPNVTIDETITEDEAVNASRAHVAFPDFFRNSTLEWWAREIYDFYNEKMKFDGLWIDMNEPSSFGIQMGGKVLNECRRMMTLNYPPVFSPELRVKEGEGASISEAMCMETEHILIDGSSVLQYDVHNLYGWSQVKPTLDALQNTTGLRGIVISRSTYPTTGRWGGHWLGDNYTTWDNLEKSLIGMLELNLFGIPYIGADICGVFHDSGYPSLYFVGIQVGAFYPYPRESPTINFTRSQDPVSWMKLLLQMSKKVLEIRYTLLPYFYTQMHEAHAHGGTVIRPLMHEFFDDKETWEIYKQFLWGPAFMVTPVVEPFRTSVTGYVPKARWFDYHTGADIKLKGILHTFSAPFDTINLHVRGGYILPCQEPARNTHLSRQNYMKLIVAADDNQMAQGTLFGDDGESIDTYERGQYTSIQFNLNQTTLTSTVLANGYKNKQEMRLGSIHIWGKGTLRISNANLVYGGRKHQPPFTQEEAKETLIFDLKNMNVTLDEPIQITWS

[4] = biological target: Lysosomal alpha-glucosidase (Rattus norvegicus) (UniProt Q6P7A9); assay: Inhibition of rat intestinal maltase at >384 uM
Chain of Lysosomal alpha-glucosidase (Rattus norvegicus) (Q6P7A9 whole entry): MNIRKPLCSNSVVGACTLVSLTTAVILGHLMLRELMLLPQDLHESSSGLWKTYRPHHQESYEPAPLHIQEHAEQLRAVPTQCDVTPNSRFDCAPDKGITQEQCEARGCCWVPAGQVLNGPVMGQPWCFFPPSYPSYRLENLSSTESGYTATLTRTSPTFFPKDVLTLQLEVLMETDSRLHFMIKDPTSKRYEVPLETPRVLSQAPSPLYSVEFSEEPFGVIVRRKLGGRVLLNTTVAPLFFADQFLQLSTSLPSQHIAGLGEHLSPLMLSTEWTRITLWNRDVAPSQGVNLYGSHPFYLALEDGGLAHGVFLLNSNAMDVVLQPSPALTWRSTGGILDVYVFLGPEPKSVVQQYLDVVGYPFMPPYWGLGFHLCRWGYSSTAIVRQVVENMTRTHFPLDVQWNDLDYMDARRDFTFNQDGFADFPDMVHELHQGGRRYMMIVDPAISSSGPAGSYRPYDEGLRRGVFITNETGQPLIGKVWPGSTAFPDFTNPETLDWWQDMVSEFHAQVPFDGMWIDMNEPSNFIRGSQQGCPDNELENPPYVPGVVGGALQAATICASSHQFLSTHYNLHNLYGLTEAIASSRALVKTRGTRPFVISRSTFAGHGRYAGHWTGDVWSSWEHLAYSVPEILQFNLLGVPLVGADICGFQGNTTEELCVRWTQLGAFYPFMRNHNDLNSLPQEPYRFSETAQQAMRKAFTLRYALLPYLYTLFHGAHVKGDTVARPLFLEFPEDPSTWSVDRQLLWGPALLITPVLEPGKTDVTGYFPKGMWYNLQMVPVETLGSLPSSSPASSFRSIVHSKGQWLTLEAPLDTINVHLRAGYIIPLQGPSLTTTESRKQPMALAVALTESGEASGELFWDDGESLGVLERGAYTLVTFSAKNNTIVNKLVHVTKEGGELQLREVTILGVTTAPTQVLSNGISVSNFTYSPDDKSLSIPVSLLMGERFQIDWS

T1 sequence (P23739 1-1013 limits assumed): as the sequence (P23739 1-1013 limits assumed) above
T1 sequence (P23739 1014-1841 limits assumed): as the sequence (P23739 1014-1841 limits assumed) above

Row | SMILES | IC50 [1] | IC50 [2] | inhibition [3] | inhibition [4]
1 | O=S(=O)([O-])OC[C@@H](O)C[S@+]1C[C@@H](O)[C@H](O)[C@H]1CO | > 329000 nM | > 329000 nM | – | –
2 | OC[C@@H](O)C[S@+]1C[C@@H](O)[C@H](O)[C@H]1CO | > 384000 nM | 52900 nM | 34.5% | –
3 | OC[C@@H](O)[C@@H](O)[C@H](O)[C@H](O)C[S@+]1C[C@@H](O)[C@H](O)[C@H]1CO | 2900 nM | 1000 nM | – | –
4 | OC[C@@H]1[C@@H](O)[C@H](O)C[S@@+]1C[C@@H](O)[C@H](O)[C@H](O)[C@@H](O)CO | 300 nM | 1000 nM | – | –
5 | OC[C@@H]1[C@@H](O)[C@H](O)C[S@@+]1C[C@@H](O)[C@@H](O)[C@H](O)[C@H](O)[C@@H](O)CO [NEOKOTALANOL] | 4500 nM | 1800 nM | – | –
6 | OCC(CO)N[C@H]1C[C@](O)(CO)[C@@H](O)[C@H](O)[C@H]1O [VOGLIBOSE] | 200 nM | 2100 nM | – | –
7 | O=S(=O)([O-])OC[C@H](O)C[S@+]1C[C@@H](O)[C@H](O)[C@H]1CO [SALAPRINOL] | > 329000 nM | 15000 nM | – | –
8 | O=S(=O)([O-])O[C@@H]([C@H](O)[C@@H](O)CO)[C@H](O)C[S@+]1C[C@@H](O)[C@H](O)[C@H]1CO [PONKORANOL] | 290 nM | 2600 nM | – | –
9 | [O-][C@@H](CO)[C@H](O)C[S@+]1C[C@@H](O)[C@H](O)[C@H]1CO [NEOSALACINOL] | 1300 nM | 300 nM | – | –
10 | OC[C@@H]1[C@@H](O)[C@H](O)C[S@@+]1C[C@@H](O)[C@@H](O)[C@H](O)[C@@H](O)CO [NEOPONKORANOL] | 1000 nM | 1400 nM | – | –
11 | O=S(=O)([O-])O[C@@H](CO)[C@H](O)C[S@+]1C[C@@H](O)[C@H](O)[C@H]1CO [SALACINOL] | 1600 nM | 1300 nM | – | –
12 | OC[C@H](O)C[S@+]1C[C@@H](O)[C@H](O)[C@H]1CO [NEOSALAPRINOL] | 90000 nM | 6500 nM | – | 35%
13 | O=S(=O)([O-])O[C@@H]([C@H](O)[C@H](O)[C@@H](O)CO)[C@H](O)C[S+]1C[C@@H](O)[C@H](O)[C@H]1CO (stereo partly drawn) [KOTALANOL] | 750 nM | 5700 nM | – | –
